{"source": "patent US6642180B1", "about": "“Biphenyl-substituted cyclic ketoenols as pesticides” (Bayer Aktiengesellschaft, priority 1999, dated 2003)", "format_in_all_cases": "in vivo", "key": {"[1]": {"tested_on": "larvae of the mustard beetle (Phaedon cochleariae)", "assay": "Phaedon-larvae test", "settings": "cabbage leaves dipped", "protocol": "Phaedon-larvae Test Solvent: 7 parts by weight of dimethylformamide Emulsifier: 1 part by weight of alkylaryl polyglycol ether To produce a suitable preparation of active compound, 1 part by weight of active compound is mixed with a stated amount of solvent and emulsifier, and the concentrate is diluted with emulsifier-containing water to the desired concentration. Cabbage leaves (Brassica oleracea) are treated by being dipped into the preparation of active compound of the desired concentration and are populated with larvae of the mustard beetle (Phaedon cochleariae) while the leaves are still moist."}, "[2]": {"tested_on": "Meloidogyne incognita", "assay": "Meloidogyne test", "settings": "sand, Meloidogyne incognita egg/larvae suspension, lettuce", "protocol": "Solvent: 7 parts by weight of dimethylformamide\n(§1) Emulsifier: 1 parts by weight of alkylaryl polyglycol ether\nTo produce a suitable preparation of active compound, 1 part by weight of active compound is mixed with the stated amounts of solvent and emulsifier, and the concentrate is diluted with water to the desired concentration.\nContainers are filled with sand, solution of active compound, Meloidogyne incognita-egg/larvae suspension and lettuce seeds. The lettuce seeds germinate and the plants develop. On the roots, galls are formed.\nAfter the desired period of time, the nematicidal action is determined in % by the gall formation. 100% means that no galls were found; 0% means that the number of galls on the treated plants corresponds to that of the untreated control."}, "[3]": {"tested_on": "Abutilon", "assay": "Pre-emergence test (greenhouse)", "settings": "250 g ai./ha, after 3 weeks", "protocol": "(§2) Solvent: 5 parts by weight of acetone\n(§3) Emulsifier: 1 part by weight of alkylaryl polyglycol ether\n(§4) To produce a suitable preparation of active compound, 1 part by weight of active compound is mixed with the stated amount of solvent, with the stated amounts of emulsifiers added and the concentrate is diluted with water to the desired concentration.\n(§5) Seeds of the test plants are sown in normal soil. After about 24 hours, the soil is sprayed with the preparation of active compound such that the particular amounts of active compound desired are applied per unit area. The concentration of the spray liquor is chosen such that the particular amounts of active compound desired are applied in 1000 l of water/ha.\n(§6) After 3 weeks, the degree of damage to the plants is rated in % damage in comparison to the development of the untreated control.\n(§7) 0%=no effect (like untreated control)"}, "[4]": {"tested_on": "Alopecurus", "assay": "Pre-emergence test (greenhouse)", "settings": "250 g ai./ha, after 3 weeks", "protocol": "as §2, §3, §4, §5, §6, §7"}, "[5]": {"tested_on": "Avena fatua", "assay": "Pre-emergence test (greenhouse)", "settings": "250 g ai./ha, after 3 weeks", "protocol": "as §2, §3, §4, §5, §6, §7"}, "[6]": {"tested_on": "Echinochloa", "assay": "Pre-emergence test (greenhouse)", "settings": "250 g ai./ha, after 3 weeks", "protocol": "as §2, §3, §4, §5, §6, §7"}, "[7]": {"tested_on": "Setaria", "assay": "Pre-emergence test (greenhouse)", "settings": "250 g ai./ha, after 3 weeks", "protocol": "as §2, §3, §4, §5, §6, §7"}, "[8]": {"tested_on": "Alopecurus", "assay": "Post-emergence test (greenhouse)", "settings": "250 g ai./ha, after three weeks", "protocol": "as §2, §1\n(§8) To produce a suitable preparation of active compound, 1 part by weight of active compound is mixed with the stated amount of solvent, the stated amount of emulsifier is added and the concentrate is diluted with water to the desired concentration.\nas §5, with “Test plants” for “Seeds”, “a height of 5-15 cm” for “the test plants”, “are” for “are sown in normal soil. After about 24 hours, the soil is”\n(§9) After three weeks, the degree of damage to the plants is rated in % damage in comparison to the development of the untreated control.\n(§10) 0% no effect (like untreated control)\n(§11) Post-emergence/greenhouse"}, "[9]": {"tested_on": "Echinochloa", "assay": "Post-emergence test (greenhouse)", "settings": "250 g ai./ha, after three weeks", "protocol": "as §2, §1, §8\nas §5, with “Test plants” for “Seeds”, “a height of 5-15 cm” for “the test plants”, “are” for “are sown in normal soil. After about 24 hours, the soil is”\nas §9, §10, §11"}, "[10]": {"tested_on": "Setaria", "assay": "Post-emergence test (greenhouse)", "settings": "250 g ai./ha, after three weeks", "protocol": "as §2, §1, §8\nas §5, with “Test plants” for “Seeds”, “a height of 5-15 cm” for “the test plants”, “are” for “are sown in normal soil. After about 24 hours, the soil is”\nas §9, §10, §11"}, "[11]": {"tested_on": "Sugar beet", "assay": "Post-emergence test (greenhouse)", "settings": "250 g ai./ha, after three weeks", "protocol": "as §2, §1, §8\nas §5, with “Test plants” for “Seeds”, “a height of 5-15 cm” for “the test plants”, “are” for “are sown in normal soil. After about 24 hours, the soil is”\nas §9, §10, §11"}}, "data": [{"molecule": "COC(=O)N(C)COC1=C(c2c(C)cc(-c3ccc(Cl)cc3)cc2C)C(=O)CC(C)(C)C1", "note": "[Example I-8-1]", "values": [{"measurement": "activity (kill of beetle larvae)", "setting": "[1]", "result": "good activity"}, {"measurement": "activity (nematicidal action by gall formation)", "setting": "[2]", "result": "good activity"}, {"measurement": "degree of damage to the plants, Abutilon", "setting": "[3]", "result": 80, "unit": "%"}, {"measurement": "degree of damage to the plants, Alopecurus", "setting": "[4]", "result": 90, "unit": "%"}, {"measurement": "degree of damage to the plants, Avena fatua", "setting": "[5]", "result": 90, "unit": "%"}, {"measurement": "degree of damage to the plants, Echinochloa", "setting": "[6]", "result": 100, "unit": "%"}, {"measurement": "degree of damage to the plants, Setaria", "setting": "[7]", "result": 100, "unit": "%"}, {"measurement": "degree of damage to the plants, Alopecurus", "setting": "[8]", "result": 80, "unit": "%"}, {"measurement": "degree of damage to the plants, Echinochloa", "setting": "[9]", "result": 100, "unit": "%"}, {"measurement": "degree of damage to the plants, Setaria", "setting": "[10]", "result": 100, "unit": "%"}, {"measurement": "degree of damage to the plants, Sugar beet", "setting": "[11]", "result": 0, "unit": "%"}]}]}
